Results taken from US8809386B2, “Use of dynamin ring stabilizers” (Children's Medical Research Institute, priority 2009, dated 2014).

Assays:
full length dynamin I [1] = target: T1, full length dynamin I (Ovis aries, UniProt A0ACI6NZN1); assay: Basal dynamin GTPase activity in the absence of PS liposomes or other template (ring stabilizer activity); format: biochemical, sheep; conditions: for stimulation of basal dynamin GTPase activity in the presence of Tween-80: dynI 200 nM, Tween-80 0.06%, Bis-T series 10 μM, all other compounds 30 μM, FIG. 11B
T1 sequence (A0ACI6NZN1 1-864): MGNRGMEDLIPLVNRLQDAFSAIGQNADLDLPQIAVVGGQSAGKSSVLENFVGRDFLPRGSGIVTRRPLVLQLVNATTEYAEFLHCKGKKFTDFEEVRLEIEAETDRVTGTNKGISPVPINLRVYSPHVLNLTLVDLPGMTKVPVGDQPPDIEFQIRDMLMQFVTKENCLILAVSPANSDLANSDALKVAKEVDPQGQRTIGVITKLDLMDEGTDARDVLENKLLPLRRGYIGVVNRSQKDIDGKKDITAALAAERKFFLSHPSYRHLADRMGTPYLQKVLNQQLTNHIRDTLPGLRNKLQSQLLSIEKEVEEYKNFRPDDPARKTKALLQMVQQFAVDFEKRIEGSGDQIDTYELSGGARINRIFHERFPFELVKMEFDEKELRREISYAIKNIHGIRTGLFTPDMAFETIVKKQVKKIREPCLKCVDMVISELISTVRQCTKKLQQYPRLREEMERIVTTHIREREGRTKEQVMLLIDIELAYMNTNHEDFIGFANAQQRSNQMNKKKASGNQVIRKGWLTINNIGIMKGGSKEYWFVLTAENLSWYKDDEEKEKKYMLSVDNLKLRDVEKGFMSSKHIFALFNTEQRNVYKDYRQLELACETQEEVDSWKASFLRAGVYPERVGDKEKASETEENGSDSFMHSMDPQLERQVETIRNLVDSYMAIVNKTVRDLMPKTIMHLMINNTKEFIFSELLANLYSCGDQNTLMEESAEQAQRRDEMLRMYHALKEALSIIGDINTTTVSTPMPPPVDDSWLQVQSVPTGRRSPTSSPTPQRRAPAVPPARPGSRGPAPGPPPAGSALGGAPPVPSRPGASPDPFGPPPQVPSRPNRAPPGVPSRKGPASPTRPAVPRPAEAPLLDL
Description: The compounds were present at the indicated concentrations and the concentration causing half-maximal stimulation is shown as the EC50.
Dynamin I (50 nM) GTPase stimulation was performed in the absence of the detergent Tween-80 (and in the absence of any known activators such as PS liposomes, nanotubes or microtubules). […] The GTPase activity of dynamin I (dynI; 200 nM) was measured in the absence of lipid activators (and in the presence of standard Tween-80 at 0.06%).
A compound (whether a dynamin inhibitor or not) can be identified as a dynamin ring stabilizer by assaying for its capacity to promote accumulation of dynamin rings and/or to inhibit disassembly of dynamin rings. […] GTPase activity of dynamin or dynamin rings can be determined by any conventionally known method (e.g., see Quan and Robinson. 2005). Such conditions include: (a) the absence of a helix assembly template such as liposomes, microtubules or lipid nanotubes, and (b) higher concentrations of dynamin than normally required for detecting template stimulated activity, typically 50-500 nM dynamin instead of 1-20 nM. Thus, ring stabilizer activity can be identified by the ability to stimulate the GTPase activity of full length dynamin in the absence of other stimulatory factors (such as PS liposomes, microtubules or nanotubes). Additional defining characteristics are available but are not essential if the first condition has been met. One such additional characteristic of ring stabilizer activity is that the stimulated activity occurs after a lag phase of a few minutes, rather than being an immediate activation in vitro. […] Such conditions typically mean utilising 50-200 nM dynamin in the absence of a template as distinct from higher concentrations where self-assembly is known to occur without the addition of a dynamin ring stabilizer.
Next, a time course experiment of Bis-T-23 stimulation of dynamin GTPase (FIG. 3) was conducted. […] The lag phase is thought to indicate the time required for dynamin to assemble as rings.

F-actin = assay: Actin co-sedimentation assay, dynamin-F-actin binding (Scatchard plot); conditions: 5 μM F-actin, centrifugation at 100,000×g, FIG. 14
Description: Increasing concentrations of dynamin (free) were added to 5 μM of F-actin. After centrifugation at 100,000×g proteins were separated on SDS-PAGE and bands were analyzed using densitometry.
To determine whether dynamin affects the actin cytoskeleton, the question of whether dynamin might directly bind filamentous actin (F-actin) was tested. In particular, an actin co-sedimentation assay was performed in which F-actin sediments under high-speed centrifugation. If dynamin interacts with F-actin it would be expected to co-sediment, and thus be present in the pellet fraction. In the presence of F-actin, but not in its absence, the majority of dynamin was found in the pellet (FIG. 12, lanes 2 and 14). […] The Kd of dynamin for actin was approximately 0.4 μM, which is similar to the affinities of other actin binding proteins such as α-actinin 4 for actin (Weins et al. 2005).
Next, the actin binding site was mapped to a region between amino acids 399 and 444 amino acids of dynamin II (dyn2) (FIG. 13). As predicted for an actin binding domain (Van et al. 1996), this region contains several positively charged amino acids conserved in all dynamin gene products from yeast to mammals. It is also alternatively spliced within different mammalian dynamin isoforms (called variant a and b in dynamins I and II) (see FIG. 13, SEQ ID No. 1-4). Site-directed mutagenesis was performed on conserved, charged residues within this actin binding domain to generate the putative ‘loss of function’ mutants, dynK/E (SEQ ID No. 9) and dynK/A (SEQ ID No. 10), and a putative ‘gain of function’ mutant, dynE/K (SEQ ID No. 11) (FIG. 13). […] All three mutant proteins had wild-type kinetic properties with respect to the basal and stimulated rate of GTP hydrolysis, indicating proper folding.

dynamin I = assay: Dynamin self-assembly assay, high speed centrifugation at decreasing NaCl; format: biochemical; conditions: dynamin 520 nM
Description: This dynamin self-assembly assay was performed with native dynamin ([…]) using the Hepes column buffer described above in Example 1.1, (with the addition of 1% DMSO as described above). Bis-T effects were measured by pre-incubating the dynamin with the indicated Bis-T concentrations for 10 min at room temperature (22° C.). NaCl concentrations were varied from a stock in 200 mM NaCl. After the incubation the tubes were transferred to a TLA120.2 rotor (Beckman) and centrifuged in a tabletop ultracentrifuge (Optima TLX, Beckman) at 100,000 g for 20 min, and the supernatants (S) and pellets (P) were collected, precipitated with trichloracetic acid, solubilised in SDS sample buffer and separated on SDS gels.
A block in ring disassembly should be manifested as an accumulation of rings in vitro. Dynamin self-assembles into rings in the absence of any cofactors when the buffer ionic strength is decreased (Song et al. 2004). To determine whether Bis-T compounds regulate dynamin-dynamin interactions a well-established method of high speed centrifugation in decreasing amounts of NaCl to collect rings in the pellet (Warnock et al. 1996) was used. Higher concentrations of dynamin (520 nM) and dynamin was visualized by Coomassie staining on SDS gels (FIG. 6). As reported by others, dynamin is in the supernatant at ≧40 mM NaCl, but self-assembled at ≦20 mM NaCl and is found in the pellet. […]

rat brain synaptosomes = assay: EM analysis of endocytic pits in KCl-depolarised rat brain synaptosomes; format: cell-based; conditions: 30 min (100 μM), depolarised with KCl, FIG. 10B
From the text: When vesicles are endocytosed via the clathrin-dependent pathway, they are well known to be internalised as omega shaped figures close to the plasma membrane with partially constricted and short necks. These can be detected by transmission electron microscopy (EM) at a low frequency. […] In contrast to these observations, a dynamin ring stabilizer causes accumulation of clathrin coated pits in cells with two distinctive features: the vesicle necks are highly elongated and are encircled by electron dense rings. […] No rings or trapped vesicles were detected when the synaptosomes were unstimulated (FIG. 10B top). This mimics the in vitro observations on purified dynamin I described earlier which forms single rings (FIG. 9).

[2] = test system: Human lymphoblasts (which express dynamin II); assay: EM analysis of clathrin coated pits in human lymphoblasts; format: cell-based; conditions: 30 min (Bis-T-22 100 μM), FIG. 10A
From the text: When vesicles are endocytosed via the clathrin-dependent pathway, they are well known to be internalised as omega shaped figures close to the plasma membrane with partially constricted and short necks. These can be detected by transmission electron microscopy (EM) at a low frequency.

full length dynamin I [3] = target: T2, full length dynamin I (UniProt Q05193); assay: Basal dynamin GTPase activity in the absence of PS liposomes or other template (ring stabilizer activity); format: biochemical, sheep; conditions: 0.2 μM dyn1, 7 μM compound, 10 μM Gsn-F-actin complexes, FIG. 18
T2 construct: rows headed: basal rate of GTP hydrolysis of dynamin
T2 sequence (Q05193 1-864): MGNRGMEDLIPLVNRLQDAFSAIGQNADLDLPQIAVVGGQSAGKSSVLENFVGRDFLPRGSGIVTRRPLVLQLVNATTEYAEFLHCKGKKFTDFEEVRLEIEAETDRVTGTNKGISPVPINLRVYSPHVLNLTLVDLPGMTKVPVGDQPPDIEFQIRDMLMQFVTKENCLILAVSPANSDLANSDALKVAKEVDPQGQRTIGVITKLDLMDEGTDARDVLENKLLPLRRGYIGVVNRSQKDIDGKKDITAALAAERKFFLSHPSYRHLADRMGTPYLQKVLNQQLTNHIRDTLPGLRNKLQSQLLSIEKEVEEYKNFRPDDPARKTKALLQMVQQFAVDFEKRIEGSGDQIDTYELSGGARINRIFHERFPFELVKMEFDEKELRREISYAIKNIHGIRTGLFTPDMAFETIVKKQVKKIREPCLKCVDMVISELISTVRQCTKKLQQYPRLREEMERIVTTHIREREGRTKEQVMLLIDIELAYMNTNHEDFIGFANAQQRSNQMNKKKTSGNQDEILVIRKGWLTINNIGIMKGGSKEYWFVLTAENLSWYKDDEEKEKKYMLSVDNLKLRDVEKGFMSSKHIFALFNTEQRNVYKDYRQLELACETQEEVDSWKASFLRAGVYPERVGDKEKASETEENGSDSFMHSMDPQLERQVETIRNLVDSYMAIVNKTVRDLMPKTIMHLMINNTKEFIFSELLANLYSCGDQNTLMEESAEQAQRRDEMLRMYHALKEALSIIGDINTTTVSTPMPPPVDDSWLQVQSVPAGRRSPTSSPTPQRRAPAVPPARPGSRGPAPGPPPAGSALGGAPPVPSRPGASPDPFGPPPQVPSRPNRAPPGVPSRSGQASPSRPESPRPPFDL

[4] = test system: truncated dynamin I construct known as GG2; assay: Basal GTPase activity of assembly-incompetent dynamin construct GG2; format: biochemical; conditions: FIG. 5
From the text: FIG. 5 is a graph showing the basal GTPase activity of the truncated dynamin I construct known as GG2, containing only the GTPase domain linked to a small part of the GED domain (Chappie et al 2009). Unlike full length dynamin this construct is known to be unable to self-assemble or to form rings. Bis-T-22 and -23 and imminodyn-22 have no effect on the basal activity of this assembly-incompetent construct.
To verify that ring stabilizers require dynamin oligomerisation, a recombinant form of dynamin, called GG-2, which is dimeric yet is unable to self-associate into higher order oligomers (Chappie et al 2009) was tested. Ring stabilizers are unable to stimulate the basal activity of such constructs (FIG. 5).

**Q.** With N=c1oc2c(O)cccc2cc1C(=O)NCCCNC(=O)c1cc2cccc(O)c2oc1=N [Iminodyn 20] as the compound, how does the ring stabilizer activity (full length dynamin I [1]; absence of PS, Table 2) read?
**A.** no ring stabilizer activity

**Q.** For “dynE/K: ‘gain of function’ dynamin mutant in the actin binding domain (SEQ ID No. 11) (RTGLFTPDLAFEAIVKKQVVKLKKPCLKCVDLVIQKLISTVRQCTS; listed as Mus musculus)”, which Kd (F-actin) is on record?
**A.** 0.03 µM

**Q.** How did the Kd (F-actin) turn out when “dynK/A: ‘loss of function’ dynamin mutant in the actin binding domain (SEQ ID No. 10) (RTGLFTPDLAFEAIVAAQVVALAEPCLACVDLVIQELISTVRQCTS; listed as Mus musculus)” was run?
**A.** 2.8 µM

**Q.** Which results are given for N#C/C(=C\c1ccc(O)c(O)c1)C(=O)NCCCNC(=O)/C(C#N)=C/c1ccc(O)c(O)c1 [Bis-T-22, 2-cyano-N-{3-[2-cyano-3-(3,4-dihydroxyphenyl)-acryloylamino]-propyl}-3-(3,4-dihydroxyphenyl)-acrylamide]?
**A.** dynamin ring assembly (dynamin in pellet) (dynamin I; 100 μM, intermediate salt concentrations): increased ring assembly; dynamin ring assembly (dynamin in pellet) (dynamin I; 300 μM, fixed 40 mM NaCl): promoted all dynamin to form rings; trapped endocytic pits by EM (rat brain synaptosomes): trapped endocytic pits were detected that were encircled by a single electron dense ring; clathrin coated pits by EM [2]: massive accumulation in all cells of clathrin coated pits with highly elongated necks; basal rate of GTP hydrolysis of dynamin (full length dynamin I [3]): stimulates dynamin's basal rate of GTP hydrolysis; effect on basal GTPase activity of GG2 [4]: no effect

**Q.** Which “effect on basal GTPase activity of GG2” value [4] does the source give for N=c1oc2c(O)c(O)ccc2cc1C(=O)NCCCNC(=O)c1cc2ccc(O)c(O)c2oc1=N [Iminodyn 22] here?
**A.** no effect

**Q.** How did the “stimulation of basal dynamin GTPase activity in the absence of Tween-80” value (full length dynamin I [1]; Dynamin I 50 nM, no Tween-80, no activators, FIG. 11A) turn out when O=C(N/N=C/c1ccc(O)c(O)c1)c1cc2ccccc2cc1O [Dynasore, 3-hydroxynaphthalene-2-carboxylic acid (3,4-dihydroxybenzylidene) hydrazide, reference compound] was run?
**A.** stimulated basal dynamin GTPase activity to similar extents as Bis-T-23

**Q.** And the “stimulation of basal dynamin GTPase activity in the presence of Tween-80” value (full length dynamin I [1])?
**A.** failed to stimulate basal GTPase activity

**Q.** How did the Kd (F-actin) turn out when “dynK/E: ‘loss of function’ dynamin mutant in the actin binding domain (SEQ ID No. 9) (RTGLFTPDLAFEAIVEEQVVELEEPCLECVDLVIQELISTVRQCTS; listed as Mus musculus)” was run?
**A.** 1.7 µM

**Q.** How did the “stimulation of basal dynamin GTPase activity in the presence of Tween-80” value (full length dynamin I [1]) turn out when O=C(N/N=C/c1cc(O)c(O)cc1O)c1cc2ccccc2cc1O [Dyngo-4a] was run?
**A.** effective
